# Data reported in patent publication US11667602B2, “Compounds and their use” (AstraZeneca AB, priority 2020, dated 2023).
# Read-outs that look alike come from different tables or passages of the source.
# Biological target: T1, human RXFP1 (Homo sapiens, UniProt Q9HBX9)
# T1 sequence (Q9HBX9 1-757): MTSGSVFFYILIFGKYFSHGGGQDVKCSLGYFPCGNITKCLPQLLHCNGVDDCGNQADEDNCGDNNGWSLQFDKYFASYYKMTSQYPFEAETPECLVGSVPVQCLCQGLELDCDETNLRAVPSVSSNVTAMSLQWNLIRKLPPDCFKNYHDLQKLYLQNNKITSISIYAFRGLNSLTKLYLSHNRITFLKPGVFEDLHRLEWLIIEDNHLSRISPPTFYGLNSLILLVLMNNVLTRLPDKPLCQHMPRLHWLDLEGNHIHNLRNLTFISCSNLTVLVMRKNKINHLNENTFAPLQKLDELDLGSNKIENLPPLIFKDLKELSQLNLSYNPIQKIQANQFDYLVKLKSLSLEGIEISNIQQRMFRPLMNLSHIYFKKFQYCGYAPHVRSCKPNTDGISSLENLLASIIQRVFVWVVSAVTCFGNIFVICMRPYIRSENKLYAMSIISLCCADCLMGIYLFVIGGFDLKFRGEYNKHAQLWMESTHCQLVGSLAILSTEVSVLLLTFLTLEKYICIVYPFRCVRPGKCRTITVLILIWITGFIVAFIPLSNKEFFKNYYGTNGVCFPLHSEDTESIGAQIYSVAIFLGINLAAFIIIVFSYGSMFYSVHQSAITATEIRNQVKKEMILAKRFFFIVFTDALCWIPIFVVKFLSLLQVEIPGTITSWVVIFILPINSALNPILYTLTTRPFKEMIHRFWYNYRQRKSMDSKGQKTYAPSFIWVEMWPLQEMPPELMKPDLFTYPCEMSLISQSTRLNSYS
# Assay: RXFP1 Hu cAMP (Test A)
# Assay type: cell-based
# Parameters: expressed in transfected cells; host or cells: Jump-In T-REx CHO-K1 cells (ThermoFisher), induced with 10 ng/ml doxycycline for 24 h
# Outline: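 Read-out is HTRF signal, inversely proportional to cAMP, converted to cAMP amount by standard curve. Stimulation occurred in inducible CHO-K1 cells expressing the human receptor with phosphodiesterases blocked by 0.5 mM IBMX.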
# [1] = RXFP1 Hu cAMP, read-out: Test A EC50
Molecule,EC50 [1] [nM],Test A Sinf (RXFP1 Hu cAMP) [%],"EC50 (Test A EC50, RXFP1 Hu cAMP) [nM]"
"COc1cc(F)c(O[C@H]2CC[C@@](C)(C(=O)O)CC2)cc1C(=O)NC1COCC1C(=O)NCC(C)(C)C (single isomer, unassigned) [Example 566, (1R,4s)-4-(2-Fluoro-4-methoxy-5-(((3S*,4R*)-4-(neopentylcarbamoyl)tetrahydrofuran-3-yl)carbamoyl)phenoxy)-1-methylcyclohexane-1-carboxylic acid]",> 40000,–,–
COc1cc(F)c(O[C@H]2CC[C@@](C)(C(=O)O)CC2)cc1C(=O)N[C@@H]1[C@H]2CC[C@H](C2)[C@@H]1C(=O)NC1CCCC1 [Example 599],260,91,–
"COc1cc(F)c(O[C@H]2CC[C@@](C)(C(=O)O)CC2)cc1C(=O)NC1CCC1C(=O)Nc1ccc(F)c(S(F)(F)(F)(F)F)c1 (single isomer, unassigned) [Example 570, (1R,4s)-4-(2-Fluoro-5-(((1S*,2R*)-2-((4-fluoro-3-(pentafluoro-λ6-sulfaneyl)phenyl)carbamoyl)cyclobutyl)carbamoyl)-4-methoxyphenoxy)-1-methylcyclohexane-1-carboxylic acid]",9200,128,–
CC[C@]1(C(=O)O)CC[C@@H](Oc2cc(C(=O)N[C@@H]3[C@H]4CC[C@H](C4)[C@@H]3C(=O)NCC(C)(C)C)c(OC)cc2F)CC1 [Example 386],70,114,–
"(1R,4s)-4-(2-Cyano-4-methoxy-5-(((1S*,2R*)-2-(((1-methylcyclobutyl)methyl)carbamoyl)cyclobutyl)carbamoyl)phenoxy)-1-methylcyclohexane-1-carboxylic acid [Example 573]",–,94,–
"COc1cc(F)c(-c2ccc(OCC(=O)O)cc2)cc1C(=O)N[C@@H]1[C@H]2CC[C@H](C2)[C@@H]1C(=O)NCC(C)(C)C [Example 330, 2-((2′-Fluoro-4′-methoxy-5′-(((1S,2R,3S,4R)-3-(neopentylcarbamoyl)bicyclo[2.2.1]heptan-2-yl)carbamoyl)-[1,1′-biphenyl]-4-yl)oxy)acetic acid]",530,97,–
COc1cc(C#N)c(O[C@H]2CC[C@@](C)(C(=O)O)CC2)cc1C(=O)N[C@@H]1[C@H]2CC[C@H](C2)[C@@H]1C(=O)NCC(C)(C)CO [Example 138],1200,100,–
"COc1cc(F)c(O[C@H]2CC[C@@](C)(C(=O)O)CC2)cc1C(=O)N[C@@H]1CCN(C(C)=O)C[C@@H]1C(=O)Nc1cccc(S(=O)(=O)C(F)(F)F)c1 (racemic) [Example 487, (1R,4s)-4-(5-(((3RS,4SR)-1-Acetyl-3-((3-((trifluoromethyl)sulfonyl)phenyl)carbamoyl)piperidin-4-yl)carbamoyl)-2-fluoro-4-methoxyphenoxy)-1-methylcyclohexane-1-carboxylic acid]",> 40000,–,–
COc1cc(C(F)(F)F)c(O[C@H]2CC[C@@](C)(C(=O)O)CC2)cc1C(=O)N[C@@H]1[C@H]2CC[C@H](C2)[C@@H]1C(=O)NCC1(C)CCC1 [Example 372],–,96,21
COc1cc(C#N)c(O[C@H]2CC[C@@](C)(C(=O)O)CC2)cc1C(=O)N[C@H]1[C@@H](C(=O)NCC2(C)CCC2)[C@H]2CC[C@@H]1O2 (racemic) [Example 333],–,98,–
COc1cc(C#N)c(O[C@H]2CC[C@@](C)(C(=O)O)CC2)cc1C(=O)N[C@@H]1[C@H]2CC[C@H](C2)[C@@H]1C(=O)NCCC(C)(C)C [Example 130],78,95,–
"COc1cc(C#N)c(OC2CCC(C)(C(=O)O)CC2)cc1C(=O)NC1C(C(=O)NCC2(C)CCC2)C2CCC1N2CCC(F)(F)F (single isomer, unassigned) [Example 537, (1R,4s)-4-(2-Cyano-4-methoxy-5-(((1S*,2S*,3R*,4R*)-3-(((1-methylcyclobutyl)methyl)carbamoyl)-7-(3,3,3-trifluoropropyl)-7-azabicyclo[2.2.1]heptan-2-yl)carbamoyl)phenoxy)-1-methylcyclohexane-1-carboxylic acid]",6000,77,–
COc1cc(C#N)c(OCCCC(C)(C)C(=O)O)cc1C(=O)N[C@@H]1[C@H]2CC[C@H](C2)[C@@H]1C(=O)NCC1(C)CCC1 [Example 431],130,115,–
COc1cc(C#N)c(O[C@H]2CC[C@@](C)(C(=O)O)CC2)cc1C(=O)Nc1cc(C)ccc1C(=O)NCC1(C)CC1 [Example 174],110,132,–
"COC(=O)[C@]1(C(=O)O)CC[C@@H](Oc2cc(C(=O)N[C@@H]3[C@H]4CC[C@H](C4)[C@@H]3C(=O)NCC3(C)CCC3)c(OC(C)C)cc2F)CC1 [Example 485, (1R,4r)-4-(2-Fluoro-4-isopropoxy-5-(((1S,2R,3S,4R)-3-(((1-methylcyclobutyl)methyl)carbamoyl)bicyclo[2.2.1]heptan-2-yl)carbamoyl)phenoxy)-1-(methoxycarbonyl)cyclohexane-1-carboxylic acid]",–,95,–
COc1cc(F)c(-c2ccc(C(=O)O)cc2)cc1C(=O)N[C@H]1[C@@H](C(=O)Nc2cc(F)cc(S(F)(F)(F)(F)F)c2)[C@@H]2C=C[C@H]1C2 (racemic) [Example 298],910,82,–

# The next lines start with results.
EC50 [1] [nM],Test A Sinf (RXFP1 Hu cAMP) [%],Molecule,"EC50 (Test A EC50, RXFP1 Hu cAMP) [nM]"
340,111,"COc1cc(F)c(O[C@H]2CC[C@@H](S(N)(=O)=O)CC2)cc1C(=O)N[C@@H]1[C@@H]2CC[C@@H](C2)[C@@H]1C(=O)Nc1cccc(S(=O)(=O)C(F)(F)F)c1 [Example 463, (1S,2S,3R,4R)-3-(4-Fluoro-2-methoxy-5-(((1s,4S)-4-sulfamoylcyclohexyl)oxy)benzamido)-N-(3-((trifluoromethyl)sulfonyl)phenyl)bicyclo[2.2.1]heptane-2-carboxamide]",–
370,95,COc1cc(F)c(-c2cccc([C@@H](C(=O)O)N(C)C)c2)cc1C(=O)N[C@@H]1[C@H]2CC[C@H](C2)[C@@H]1C(=O)Nc1cccc(S(=O)(=O)C(F)(F)F)c1 (racemic) [Example 294],–
–,75,COc1cc(F)c(-c2ccccc2CC(=O)O)cc1C(=O)N[C@H]1[C@@H](C(=O)Nc2cccc(S(=O)(=O)C(F)(F)F)c2)[C@@H]2C=C[C@H]1C2 (racemic) [Example 235],–
–,73,"O=C(O)c1ccc(-c2cc(C(=O)N[C@H]3[C@@H](C(=O)Nc4cccc(S(=O)(=O)C(F)(F)F)c4)[C@@H]4C=C[C@H]3C4)c(F)cc2F)cc1 (racemic) [Example 306, rac-2′,4′-Difluoro-5′-(((1R,2R,3S,4S)-3-((3-((trifluoromethyl)sulfonyl)phenyl)carbamoyl)bicyclo[2.2.1]hept-5-en-2-yl)carbamoyl)-[1,1′-biphenyl]-4-carboxylic acid]",–
> 40000,–,COc1cc(F)c(-c2cnc(C(=O)O)nc2)cc1C(=O)N[C@H]1[C@@H](C(=O)Nc2cccc(S(=O)(=O)C(F)(F)F)c2)[C@@H]2C=C[C@H]1C2 (racemic) [Example 280],–
7.8,104,COC[C@]1(C(=O)O)CC[C@@H](Oc2cc(C(=O)N[C@@H]3[C@@H]4CC[C@@H](C4)[C@@H]3C(=O)Nc3cccc(S(=O)(=O)C(F)(F)F)c3)c(OC)cc2F)CC1 [Example 479],–
14,94,"COc1cc(F)c(O[C@H]2C[C@@](C)(C(=O)O)C2)cc1C(=O)N[C@@H]1[C@@H]2CC[C@@H](C2)[C@@H]1C(=O)Nc1cccc(S(=O)(=O)C(F)(F)F)c1 [Example 505, (1S,3s)-3-(2-Fluoro-4-methoxy-5-(((1R,2R,3S,4S)-3-((3-((trifluoromethyl)sulfonyl)phenyl)carbamoyl)bicyclo[2.2.1]heptan-2-yl)carbamoyl)phenoxy)-1-methylcyclobutane-1-carboxylic acid]",–
570,111,COc1cc(F)c(-c2ncc(C(=O)O)s2)cc1C(=O)N[C@H]1[C@@H](C(=O)Nc2cccc(S(=O)(=O)C(F)(F)F)c2)[C@@H]2C=C[C@H]1C2 (racemic) [Example 287],–
610,107,COc1cc(F)c(OCc2ccc(C(=O)O)cc2)cc1C(=O)N[C@H]1[C@@H](C(=O)Nc2cccc(S(=O)(=O)C(F)(F)F)c2)[C@@H]2C=C[C@H]1C2 (racemic) [Example 450],–
> 40000,–,"COc1cc(F)c(-c2ccc(C(=O)O)cc2)cc1C(=O)N[C@H]1[C@@H]2CC[C@@H](C2)[C@H]1C(=O)N[C@H]1CCCN(S(=O)(=O)C(F)(F)F)C1 (single isomer, unassigned) [Example 313, 2′-Fluoro-4′-methoxy-5′-(((1R*,2S*,3R*,4S*)-3-(((S)-1-((trifluoromethyl)sulfonyl)piperidin-3-yl)carbamoyl)bicyclo[2.2.1]heptan-2-yl)carbamoyl)-[1,1′-biphenyl]-4-carboxylic acid]",–
